In ChEMBL document CHEMBL1201862, “PubChem BioAssay data set” (2004):
Activity calls are given as the source filed them.

Tests used:
[1] = HepG2 cell cytotoxicity, dose response, cytotoxicity control, plate reader, cherry-pick, antagonist series (AID 743416); format: functional, cell-based
[2] = MC4R antagonists, dose response, counter-screen for LGR2 antagonist project, cell-based, plate reader, cherry pick (AID 743444); format: functional;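 note: transfected HEK 293 cells stimulated with alpha-MSH peptide; potency of inhibitors of the alpha-MSH evoked signal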
Protein RecA = molecular target: T1, Protein RecA (Mycobacterium tuberculosis, UniProt P9WHJ3); assay: Fluorescence Cell-Free Homogeneous Dose Retest to Identify Inhibitors of RecA-Intein Splicing Activity. [Related pubchem assays (depositor defined):AID2097, AID2223, AID489010, AID492950]; format: functional
T1 sequence (P9WHJ3 whole entry): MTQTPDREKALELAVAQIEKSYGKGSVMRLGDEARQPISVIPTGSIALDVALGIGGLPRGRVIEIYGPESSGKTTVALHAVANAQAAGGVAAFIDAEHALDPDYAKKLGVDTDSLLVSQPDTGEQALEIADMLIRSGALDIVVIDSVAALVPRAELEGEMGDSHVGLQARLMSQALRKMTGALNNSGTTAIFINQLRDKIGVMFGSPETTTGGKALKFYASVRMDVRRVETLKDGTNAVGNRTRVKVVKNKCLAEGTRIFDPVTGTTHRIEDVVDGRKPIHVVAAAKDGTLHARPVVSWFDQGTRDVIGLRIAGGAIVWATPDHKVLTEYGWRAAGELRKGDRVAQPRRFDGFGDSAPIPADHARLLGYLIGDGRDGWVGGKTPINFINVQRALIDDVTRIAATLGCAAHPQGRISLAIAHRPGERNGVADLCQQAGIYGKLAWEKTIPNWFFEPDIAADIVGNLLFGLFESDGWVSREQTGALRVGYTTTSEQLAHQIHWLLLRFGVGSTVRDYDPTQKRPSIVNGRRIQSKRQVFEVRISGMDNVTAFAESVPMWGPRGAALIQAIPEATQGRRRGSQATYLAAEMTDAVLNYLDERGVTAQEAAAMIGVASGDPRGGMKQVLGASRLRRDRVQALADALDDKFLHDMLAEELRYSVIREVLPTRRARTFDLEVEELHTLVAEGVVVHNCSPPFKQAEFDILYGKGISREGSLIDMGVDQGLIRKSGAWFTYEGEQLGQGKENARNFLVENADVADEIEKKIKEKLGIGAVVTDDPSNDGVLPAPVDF

[3] = HepG2 cell cytotoxicity, dose response, cytotoxicity control for Shn3 inhibitor project, CellTiter-Glo, cherry-picked (AID 624134); format: functional, cell-based
HEK293 = assay: optical interference in Abeta FP readout, dose response, artefact control for IDE activator project, biochemical, fluorescence polarization (AID 588442); format: functional, cell-based; conditions: Homo sapiens

SMILES: Cl.N=c1n(Cc2ccccc2)c2ccccc2n1CC(O)COc1ccc(Cl)cc1Cl (stereo not given)
- AC50 [1]: 6.16 µM (active)
- AC50 [2]: 26.6 µM (active)
- EC50 (Protein RecA): > 380 µM (inconclusive)
- AC50 [3]: 14.3 µM (active)
- EC50 (HEK293): > 54.7 µM (inactive)
